Test results from the supplement of paper PMC10307832.

Assays:
Test in all cases: relative viability (nuclei count vs DMSO), 5 days (fraction); higher = more cells survive
[1] = system: NCI-H1650
In short: (§1)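 Nuclei were stained with Hoechst during a one-step fixation (final 0.05% Triton X-100, 1% formaldehyde, 1 ug/ml Hoechst) carried out 5 days after dosing, then counted on 4× images. The cells, lung cancer lines in 1536-well plates, had been dosed by pin tool the day after seeding with one drug alone or a fixed anchor-drug dose plus five library-drug doses (not always all listed) in √10 steps. Relative viability is the nuclei count in treated wells divided by that in vehicle wells, and each value is the median of duplicate plates.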

[2] = system: LCLC-97TM1
In short: as §1

[3] = system: NCI-H647
In short: as §1

[4] = system: NCI-H2405
In short: as §1

[5] = system: NCI-H3122
In short: as §1

[6] = system: HCC-827
In short: as §1

[7] = system: RERF-LC-KJ
In short: as §1

[8] = system: 201T
In short: as §1

[9] = system: SK-LU-1
In short: as §1

[10] = system: NCI-H2228
In short: as §1

[11] = system: NCI-H1355
In short: as §1

[12] = system: BEN
In short: as §1

[13] = system: HCC-44
In short: as §1

[14] = system: NCI-H1793
In short: as §1

[15] = system: NCI-H1437
In short: as §1

[16] = system: NCI-H322M
In short: as §1

[17] = system: CAL-12T
In short: as §1

[18] = system: NCI-H2087
In short: as §1

[19] = system: LXF-289
In short: as §1

[20] = system: NCI-H2023
In short: as §1

[21] = system: NCI-H727
In short: as §1

[22] = system: LCLC-103H
In short: as §1

[23] = system: NCI-H1395
In short: as §1

[24] = system: HOP-62
In short: as §1

## Clc1ccc(Nc2nnc(Cc3ccncc3)c3ccccc23)cc1 [Vatalanib] + CC(=O)Nc1cccc(-n2c(=O)n(C3CC3)c(=O)c3c(Nc4ccc(I)cc4F)n(C)c(=O)c(C)c32)c1 [Trametinib] (partner 0.02 µM)
[1]; first compound 0.04 µM
  relative viability: 0.598
[1]; first compound 0.1265 µM
  relative viability: 0.532
[1]; first compound 0.4 µM
  relative viability: 0.306
[1]; first compound 1.265 µM
  relative viability: 0.656
[1]; first compound 4 µM
  relative viability: 0.508
[2]; first compound 0.04 µM
  relative viability: 0.18
[2]; first compound 0.1265 µM
  relative viability: 0.197
[2]; first compound 0.4 µM
  relative viability: 0.198
[2]; first compound 1.265 µM
  relative viability: 0.195
[2]; first compound 4 µM
  relative viability: 0.184
[3]; first compound 0.04 µM
  relative viability: 0.538
[3]; first compound 0.1265 µM
  relative viability: 0.614
[3]; first compound 0.4 µM
  relative viability: 0.581
[3]; first compound 1.265 µM
  relative viability: 0.407
[3]; first compound 4 µM
  relative viability: 0.499
[4]; first compound 0.04 µM
  relative viability: 0.696
[4]; first compound 0.1265 µM
  relative viability: 0.568
[4]; first compound 0.4 µM
  relative viability: 0.683
[4]; first compound 4 µM
  relative viability: 0.557
[5]; first compound 0.04 µM
  relative viability: 0.239
[5]; first compound 0.1265 µM
  relative viability: 0.229
[5]; first compound 0.4 µM
  relative viability: 0.238
[5]; first compound 1.265 µM
  relative viability: 0.244
[5]; first compound 4 µM
  relative viability: 0.212
[6]; first compound 0.04 µM
  relative viability: 0.519
[6]; first compound 0.1265 µM
  relative viability: 0.578
[6]; first compound 1.265 µM
  relative viability: 0.52
[6]; first compound 4 µM
  relative viability: 0.522
[7]; first compound 0.04 µM
  relative viability: 0.931
[7]; first compound 0.1265 µM
  relative viability: 0.867
[7]; first compound 0.4 µM
  relative viability: 0.903
[7]; first compound 1.265 µM
  relative viability: 0.791
[7]; first compound 4 µM
  relative viability: 0.782
[8]; first compound 0.04 µM
  relative viability: 0.718
[8]; first compound 0.1265 µM
  relative viability: 0.743
[8]; first compound 0.4 µM
  relative viability: 0.75
[8]; first compound 1.265 µM
  relative viability: 0.731
[8]; first compound 4 µM
  relative viability: 0.735
[9]; first compound 0.04 µM
  relative viability: 0.59
[9]; first compound 0.1265 µM
  relative viability: 0.54
[9]; first compound 0.4 µM
  relative viability: 0.666
[9]; first compound 1.265 µM
  relative viability: 0.533
[9]; first compound 4 µM
  relative viability: 0.599
[10]; first compound 0.04 µM
  relative viability: 0.542
[10]; first compound 0.1265 µM
  relative viability: 0.467
[10]; first compound 0.4 µM
  relative viability: 0.666
[10]; first compound 1.265 µM
  relative viability: 0.782
[10]; first compound 4 µM
  relative viability: 0.44
[11]; first compound 0.04 µM
  relative viability: 0.443
[11]; first compound 0.1265 µM
  relative viability: 0.383
[11]; first compound 0.4 µM
  relative viability: 0.461
[11]; first compound 1.265 µM
  relative viability: 0.404
[11]; first compound 4 µM
  relative viability: 0.428
[12]; first compound 0.04 µM
  relative viability: 1.12
[12]; first compound 0.1265 µM
  relative viability: 1.04
[12]; first compound 0.4 µM
  relative viability: 0.976
[12]; first compound 1.265 µM
  relative viability: 1.12
[12]; first compound 4 µM
  relative viability: 0.977
[13]; first compound 0.04 µM
  relative viability: 1.06
[13]; first compound 0.1265 µM
  relative viability: 1.07
[13]; first compound 0.4 µM
  relative viability: 0.959
[13]; first compound 1.265 µM
  relative viability: 0.994
[13]; first compound 4 µM
  relative viability: 1.02
[14]; first compound 0.04 µM
  relative viability: 0.372
[14]; first compound 0.1265 µM
  relative viability: 0.494
[14]; first compound 0.4 µM
  relative viability: 0.424
[14]; first compound 1.265 µM
  relative viability: 0.388
[14]; first compound 4 µM
  relative viability: 0.425
[15]; first compound 0.04 µM
  relative viability: 0.571
[15]; first compound 0.1265 µM
  relative viability: 0.499
[15]; first compound 0.4 µM
  relative viability: 0.554
[15]; first compound 1.265 µM
  relative viability: 0.451
[15]; first compound 4 µM
  relative viability: 0.486
[16]; first compound 0.04 µM
  relative viability: 0.416
[16]; first compound 0.1265 µM
  relative viability: 0.51
[16]; first compound 0.4 µM
  relative viability: 0.552
[16]; first compound 4 µM
  relative viability: 0.517
[17]; first compound 0.04 µM
  relative viability: 0.366
[17]; first compound 0.1265 µM
  relative viability: 0.296
[17]; first compound 0.4 µM
  relative viability: 0.368
[17]; first compound 1.265 µM
  relative viability: 0.366
[17]; first compound 4 µM
  relative viability: 0.298
[18]; first compound 0.04 µM
  relative viability: 0.245
[18]; first compound 0.1265 µM
  relative viability: 0.197
[18]; first compound 0.4 µM
  relative viability: 0.249
[18]; first compound 1.265 µM
  relative viability: 0.194
[18]; first compound 4 µM
  relative viability: 0.179
[19]; first compound 0.04 µM
  relative viability: 0.688
[19]; first compound 0.1265 µM
  relative viability: 0.647
[19]; first compound 0.4 µM
  relative viability: 0.686
[19]; first compound 1.265 µM
  relative viability: 0.668
[19]; first compound 4 µM
  relative viability: 0.626
[20]; first compound 0.04 µM
  relative viability: 0.5
[20]; first compound 0.1265 µM
  relative viability: 0.529
[20]; first compound 0.4 µM
  relative viability: 0.477
[20]; first compound 1.265 µM
  relative viability: 0.503
[20]; first compound 4 µM
  relative viability: 0.517
[21]; first compound 0.1265 µM
  relative viability: 0.413
[21]; first compound 0.4 µM
  relative viability: 0.377
[21]; first compound 1.265 µM
  relative viability: 0.37
[21]; first compound 4 µM
  relative viability: 0.394
[22]; first compound 0.04 µM
  relative viability: 0.663
[22]; first compound 0.1265 µM
  relative viability: 0.663
[22]; first compound 0.4 µM
  relative viability: 0.684
[22]; first compound 1.265 µM
  relative viability: 0.653
[22]; first compound 4 µM
  relative viability: 0.669
[23]; first compound 0.04 µM
  relative viability: 1.1
[23]; first compound 0.1265 µM
  relative viability: 1.03
[23]; first compound 0.4 µM
  relative viability: 1.14
[23]; first compound 4 µM
  relative viability: 0.974
[24]; first compound 0.04 µM
  relative viability: 0.388
[24]; first compound 0.1265 µM
  relative viability: 0.382
[24]; first compound 0.4 µM
  relative viability: 0.42
[24]; first compound 1.265 µM
  relative viability: 0.367
[24]; first compound 4 µM
  relative viability: 0.355

## CC(C)Oc1cc(Nc2nc(N[C@@H](C)c3ccc(F)cn3)ncc2Cl)n[nH]1 [AZ23] + O=C(c1cc(Cc2n[nH]c(=O)c3ccccc23)ccc1F)N1CCN(C(=O)C2CC2)CC1 [Olaparib] (partner 8 µM)
[1]; first compound 0.01 µM
  relative viability: 0.685
[1]; first compound 0.03162 µM
  relative viability: 0.97
[1]; first compound 0.3162 µM
  relative viability: 0.876
[2]; first compound 0.01 µM
  relative viability: 0.299
[2]; first compound 0.03162 µM
  relative viability: 0.526
[2]; first compound 0.3162 µM
  relative viability: 0.416
[3]; first compound 0.01 µM
  relative viability: 0.68
[3]; first compound 0.03162 µM
  relative viability: 0.687
[3]; first compound 0.3162 µM
  relative viability: 0.812
[4]; first compound 0.01 µM
  relative viability: 0.855
[4]; first compound 0.03162 µM
  relative viability: 0.903
[4]; first compound 0.3162 µM
  relative viability: 0.831
[5]; first compound 0.01 µM
  relative viability: 0.627
[5]; first compound 0.03162 µM
  relative viability: 0.715
[5]; first compound 0.3162 µM
  relative viability: 0.684
[6]; first compound 0.01 µM
  relative viability: 0.665
[6]; first compound 0.03162 µM
  relative viability: 0.764
[6]; first compound 0.3162 µM
  relative viability: 0.712
[7]; first compound 0.01 µM
  relative viability: 1.06
[7]; first compound 0.03162 µM
  relative viability: 0.875
[7]; first compound 0.3162 µM
  relative viability: 0.917
[8]; first compound 0.01 µM
  relative viability: 0.899
[8]; first compound 0.03162 µM
  relative viability: 0.872
[8]; first compound 0.3162 µM
  relative viability: 0.85
[9]; first compound 0.03162 µM
  relative viability: 0.564
[9]; first compound 0.3162 µM
  relative viability: 0.47
[10]; first compound 0.01 µM
  relative viability: 0.53
[10]; first compound 0.03162 µM
  relative viability: 0.775
[10]; first compound 0.3162 µM
  relative viability: 0.589
[11]; first compound 0.01 µM
  relative viability: 0.808
[11]; first compound 0.03162 µM
  relative viability: 0.771
[11]; first compound 0.3162 µM
  relative viability: 0.699
[12]; first compound 0.01 µM
  relative viability: 1.03
[12]; first compound 0.03162 µM
  relative viability: 1.24
[12]; first compound 0.3162 µM
  relative viability: 1.16
[13]; first compound 0.01 µM
  relative viability: 1.04
[13]; first compound 0.03162 µM
  relative viability: 1.04
[13]; first compound 0.3162 µM
  relative viability: 0.979
[14]; first compound 0.01 µM
  relative viability: 0.756
[14]; first compound 0.03162 µM
  relative viability: 1.1
[14]; first compound 0.3162 µM
  relative viability: 0.85
[15]; first compound 0.01 µM
  relative viability: 0.714
[15]; first compound 0.03162 µM
  relative viability: 0.618
[15]; first compound 0.3162 µM
  relative viability: 0.648
[16]; first compound 0.01 µM
  relative viability: 0.564
[16]; first compound 0.03162 µM
  relative viability: 0.749
[16]; first compound 0.3162 µM
  relative viability: 0.741
[17]; first compound 0.01 µM
  relative viability: 0.752
[17]; first compound 0.03162 µM
  relative viability: 0.747
[17]; first compound 0.3162 µM
  relative viability: 0.745
[18]; first compound 0.01 µM
  relative viability: 0.819
[18]; first compound 0.03162 µM
  relative viability: 0.73
[18]; first compound 0.3162 µM
  relative viability: 0.642
[19]; first compound 0.01 µM
  relative viability: 1.39
[19]; first compound 0.03162 µM
  relative viability: 1.14
[19]; first compound 0.3162 µM
  relative viability: 1.1
[20]; first compound 0.03162 µM
  relative viability: 0.572
[20]; first compound 0.3162 µM
  relative viability: 0.573
[21]; first compound 0.01 µM
  relative viability: 0.751
[21]; first compound 0.03162 µM
  relative viability: 0.678
[21]; first compound 0.3162 µM
  relative viability: 0.689
[22]; first compound 0.01 µM
  relative viability: 0.981
[22]; first compound 0.03162 µM
  relative viability: 0.86
[22]; first compound 0.3162 µM
  relative viability: 0.864
[23]; first compound 0.03162 µM
  relative viability: 0.424
[23]; first compound 0.3162 µM
  relative viability: 0.452
[24]; first compound 0.03162 µM
  relative viability: 0.477
[24]; first compound 0.3162 µM
  relative viability: 0.379
